Usually IC50 stands for the concentration that gives 50% inhibition.

From patent US20240279241A1, “PYRIDO[4,3-D]PYRIMIDINE COMPOUNDS CAPABLE OF INHIBITING KRAS MUTANT PROTEINS” (Redx Pharma PLC, priority 2021, published 2024) come the findings set out here.

Format in all cases: biochemical
One assay has as its target T1, KRAS G12D (Homo sapiens, UniProt P01116, G12D).
T1 construct: Recombinant human RAS protein (2 nM)
Briefly: HTRF nucleotide exchange assay (NEA), KRAS G12D. To be noted: recombinant human KRAS G12D aa1-188, 2 nM; lowest class = % inhibition at 10 μM. The essentials:
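Compound binding to KRAS G12D was measured by HTRF nucleotide exchange. Recombinant human KRAS G12D (aa1-188, N-terminal 6×His-tag, 2 nM) and 2 nM Europium anti-6×His antibody were combined with compound in 5 uL assay buffer in 384-well plates for 60 minutes at room temperature, then 5 ul of 200 nM EDA-GTP-DY647P1 was added for 30 minutes before time-resolved fluorescence reading.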
Background: In TR-FRET formats the signal depends on donor and acceptor labels being close together.

Another assay addresses T2, KRAS WT (Homo sapiens, UniProt P01116).
T2 construct: Recombinant human RAS protein (2 nM); aa1-188 KRAS WT
The assay can be described thus: HTRF nucleotide exchange assay (NEA), KRAS WT. The essentials: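 Compound was preincubated 60 min at room temperature with His-tagged human KRAS (aa1-188; WT and G13D at 2 nM, G12C and G12S at 4 nM) and 2 nM Eu-anti-His antibody. Labelled GTP (EDA-GTP-DY647P1, 200 nM) was added for 30 min, then HTRF was read and IC50 derived by four-parameter logistic fit.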

The next assay deals with T3, KRAS G12C (Homo sapiens, UniProt P01116, G12C).
T3 construct: 4 nM KRAS; aa1-188 containing the G12V, G12C, G12A or G12S amino acid substitution
The assay can be described thus: HTRF nucleotide exchange assay (NEA), KRAS G12C. The protocol: (§1) The capacity of compounds to bind KRAS G12D, other KRAS mutants and wildtype RAS isoforms was quantified using a HTRF nucleotide exchange assay. Recombinant human RAS protein (2 nM; aa1-188 KRAS WT, HRAS WT, NRAS WT, or KRAS containing the containing the G12D, G13D or Q61H amino acid substitutions, or 4 nM KRAS; aa1-188 containing the G12V, G12C, G12A or G12S amino acid substitution, an N-terminal 6×His-tag and leader sequence), and 2 nM Europium-labeled anti-6×His antibody were mixed in assay buffer (10 mM HEPES pH7.3, 150 mM NaCl, 5 mM MgCl2, 0.05% BSA, 0.0025% NP-40 and 100 mM KF) with various concentrations of compound in a 384-well plate and a volume of 5 uL. After a 60-minute incubation at room temperature, 5 ul of 200 nM EDA-GTP-DY647P1 (diluted in assay buffer) was added to the plate. Following 30-minute incubation at room temperature, time-resolved fluorescence was measured on a PerkinElmer Envision plate reader. DMSO (0.3%) and unlabeled […] (1 μM) or equivalent tool compound were used to generate the Max and Min assay signals, respectively. Data was analysed using a four-parameter logistic model to calculate IC50 values, with at least two independent replicates were performed for each compound.

The target in a further assay is T4, KRAS G12V (Homo sapiens, UniProt P01116, G12V).
T4 construct: 4 nM KRAS; aa1-188 containing the G12V, G12C, G12A or G12S amino acid substitution
Briefly: HTRF nucleotide exchange assay (NEA), KRAS G12V. As to the method:
as §1

For a further assay, the target named is T5, KRAS G12S (Homo sapiens, UniProt P01116, G12S).
T5 construct: 4 nM KRAS; aa1-188 containing the G12V, G12C, G12A or G12S amino acid substitution
The assay can be described thus: HTRF nucleotide exchange assay (NEA), KRAS G12S. As to the method:
as §1

For another assay, the target named is T6, KRAS G12A (Homo sapiens, UniProt P01116, G12A).
T6 construct: 4 nM KRAS; aa1-188 containing the G12V, G12C, G12A or G12S amino acid substitution
Briefly: HTRF nucleotide exchange assay (NEA), KRAS G12A. As to the method:
as §1

Like-named read-outs stand apart in the source and are kept apart here.

T1 sequence (P01116 1-188 isoform P01116-2 G12D): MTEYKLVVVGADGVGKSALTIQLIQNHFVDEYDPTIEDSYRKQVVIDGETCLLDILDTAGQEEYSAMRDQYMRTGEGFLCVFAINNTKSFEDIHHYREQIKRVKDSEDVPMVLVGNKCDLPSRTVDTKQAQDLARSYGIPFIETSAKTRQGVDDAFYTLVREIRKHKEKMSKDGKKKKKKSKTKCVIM
T5 sequence (P01116 1-188 isoform P01116-2 G12S): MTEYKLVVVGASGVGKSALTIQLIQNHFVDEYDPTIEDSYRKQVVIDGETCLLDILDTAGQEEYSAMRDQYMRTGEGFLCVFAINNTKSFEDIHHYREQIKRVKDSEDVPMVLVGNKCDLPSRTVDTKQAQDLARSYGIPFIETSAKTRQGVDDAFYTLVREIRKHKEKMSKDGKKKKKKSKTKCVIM
T6 sequence (P01116 1-188 isoform P01116-2 G12A): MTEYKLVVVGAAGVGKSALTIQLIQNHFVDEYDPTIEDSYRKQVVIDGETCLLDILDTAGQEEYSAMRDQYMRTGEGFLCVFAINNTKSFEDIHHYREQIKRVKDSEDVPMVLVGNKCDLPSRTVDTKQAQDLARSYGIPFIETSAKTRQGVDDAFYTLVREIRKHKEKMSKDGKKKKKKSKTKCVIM
T3 sequence (P01116 1-188 isoform P01116-2 G12C): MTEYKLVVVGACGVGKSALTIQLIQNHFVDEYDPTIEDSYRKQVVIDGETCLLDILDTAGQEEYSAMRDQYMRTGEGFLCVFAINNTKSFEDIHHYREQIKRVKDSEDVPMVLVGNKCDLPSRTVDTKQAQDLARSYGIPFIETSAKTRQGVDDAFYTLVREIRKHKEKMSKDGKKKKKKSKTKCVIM
T4 sequence (P01116 1-188 isoform P01116-2 G12V): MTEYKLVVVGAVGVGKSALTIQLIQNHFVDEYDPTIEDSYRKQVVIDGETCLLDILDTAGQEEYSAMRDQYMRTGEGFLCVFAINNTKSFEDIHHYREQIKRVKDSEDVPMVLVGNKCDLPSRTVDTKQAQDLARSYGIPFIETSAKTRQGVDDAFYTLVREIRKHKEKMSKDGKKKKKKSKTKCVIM
T2 sequence (P01116 1-188 isoform P01116-2): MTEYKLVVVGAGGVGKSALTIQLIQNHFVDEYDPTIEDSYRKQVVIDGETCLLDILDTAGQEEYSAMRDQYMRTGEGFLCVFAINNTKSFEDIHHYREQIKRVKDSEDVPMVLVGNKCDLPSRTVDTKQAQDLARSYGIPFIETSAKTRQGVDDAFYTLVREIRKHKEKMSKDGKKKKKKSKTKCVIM

Regarding `N#CC1CCN(c2nc(OCC34CCCN3CCC4)nc3c(F)c(-c4cc(O)cc5ccccc45)ncc23)CC1` [Example 65, 1-[8-fluoro-2-(1,2,3,5,6,7-hexahydropyrrolizin-8-ylmethoxy)-7-(3-hydroxy-1-naphthyl)pyrido[4,3-d]pyrimidin-4-yl]piperidine-4-carbonitrile], the IC50 is 100 to 10000 nM on KRAS G12D; 100 to 10000 nM against KRAS WT; 10 to 100 nM against KRAS G12C; 10 to 100 nM on KRAS G12V; 100 to 10000 nM against KRAS G12S; 10 to 100 nM at KRAS G12A.

As to `Oc1cc(-c2ncc3c(N4CCC(O)CC4)nc(OCC45CCCN4CCC5)nc3c2F)c2ccccc2c1` [Example 41, 1-[8-fluoro-2-(1,2,3,5,6,7-hexahydropyrrolizin-8-ylmethoxy)-7-(3-hydroxy-1-naphthyl)pyrido[4,3-d]pyrimidin-4-yl]piperidin-4-ol], the IC50 on KRAS G12D fell in the range of 10 to 100 nM; against KRAS WT, 10 to 100 nM; against KRAS G12C, 10 to 100 nM; on KRAS G12V, 10 to 100 nM; against KRAS G12S, 100 to 10000 nM; at KRAS G12A, 10 to 100 nM.

Turning to `Oc1cc(-c2ncc3c(N4CCCC5(COC5)C4)nc(OCC45CCCN4CCC5)nc3c2F)c2ccccc2c1` [Example 52, 4-[8-fluoro-2-(1,2,3,5,6,7-hexahydropyrrolizin-8-ylmethoxy)-4-(2-oxa-8-azaspiro[3.5]nonan-8-yl)pyrido[4,3-d]pyrimidin-7-yl]naphthalen-2-ol], the IC50 on KRAS G12D lay in the range of 10 to 100 nM; against KRAS WT, 10 to 100 nM; at KRAS G12C it was 10 to 100 nM; against KRAS G12V it was 10 to 100 nM; on KRAS G12S, 100 to 10000 nM; on KRAS G12A, 10 to 100 nM.

Consider `C#Cc1c(F)ccc2cc(O)cc(-c3ncc4c(N5CCCNC(=O)C5)nc(OC[C@@]56CCCN5C[C@H](F)C6)nc4c3F)c12` (relative stereo) [Example 88, 4-[7-(8-ethynyl-7-fluoro-3-hydroxy-1-naphthyl)-8-fluoro-2-[[trans-2-fluoro-1,2,3,5,6,7-hexahydropyrrolizin-8-yl]methoxy]pyrido [4,3-d]pyrimidin-4-yl]-1,4-diazepan-2-one], for which the IC50 on KRAS G12D, against KRAS WT, at KRAS G12C, on KRAS G12V, on KRAS G12S and against KRAS G12A was no more than 10 nM throughout.

On to `CC(C)(O)C1CCN(c2nc(OCC34CCCN3CCC4)nc3c(F)c(-c4cc(O)cc5ccccc45)ncc23)C1` (stereo not drawn) [Example 74, 4-[8-fluoro-2-(1,2,3,5,6,7-hexahydropyrrolizin-8-ylmethoxy)-4-[3-(1-hydroxy-1-methyl-ethyl)pyrrolidin-1-yl]pyrido[4,3-d]pyrimidin-7-yl]naphthalen-2-ol], for which the IC50 on KRAS G12D was greater than 10000 nM; on KRAS WT, 100 to 10000 nM; at KRAS G12C (recombinant human KRAS G12C aa1-188, 4 nM, lowest class = % inhibition at 10 μM), greater than 10000 nM; on KRAS G12V (recombinant human KRAS G12V aa1-188, 4 nM, lowest class = % inhibition at 10 μM) it was greater than 10000 nM.

As for `C#Cc1c(F)ccc2cc(O)cc(-c3ncc4c(N5CCC(O)CC5)nc(OC[C@@]56CCCN5C[C@H](F)C6)nc4c3F)c12` (relative stereo) [Example 86, 1-[7-(8-ethynyl-7-fluoro-3-hydroxy-1-naphthyl)-8-fluoro-2-[[trans-2-fluoro-1,2,3,5,6,7-hexahydropyrrolizin-8-yl]methoxy]pyrido[4,3-d]pyrimidin-4-yl]piperidin-4-ol], the IC50 at KRAS G12D, against KRAS WT, against KRAS G12C and at KRAS G12V was no more than 10 nM each time.

In the case of `Oc1cc(-c2ncc3c(N4CCCC(O)CC4)nc(OCC45CCCN4CCC5)nc3c2F)c2ccccc2c1` (stereo not drawn) [Example 70, 1-[8-fluoro-2-(1,2,3,5,6,7-hexahydropyrrolizin-8-ylmethoxy)-7-(3-hydroxy-1-naphthyl)pyrido[4,3-d]pyrimidin-4-yl]azepan-4-ol], the IC50 on KRAS G12D was no more than 10 nM; against KRAS WT, 10 to 100 nM; on KRAS G12C, 10 to 100 nM; on KRAS G12V, 10 to 100 nM; against KRAS G12S, 100 to 10000 nM; on KRAS G12A, 10 to 100 nM.

In the case of `CS(=O)(=O)CCCNc1nc(OCC23CCCN2CCC3)nc2c(F)c(-c3cc(O)cc4ccccc34)ncc12` [Example 46, 4-[8-fluoro-2-(1,2,3,5,6,7-hexahydropyrrolizin-8-ylmethoxy)-4-(3-methylsulfonylpropylamino)pyrido[4,3-d]pyrimidin-7-yl]naphthalen-2-ol], the IC50 on KRAS G12D, on KRAS WT and at KRAS G12S was 100 to 10000 nM each time.

`O=S1(=O)CCN(c2nc(OCC34CCCN3CCC4)nc3c(F)c(-c4cc(O)cc5ccccc45)ncc23)CCN1` [Example 59, 4-[4-(1,1-dioxo-1,2,5-thiadiazepan-5-yl)-8-fluoro-2-(1,2,3,5,6,7-hexahydropyrrolizin-8-ylmethoxy)pyrido [4,3-d]pyrimidin-7-yl]naphthalen-2-ol]: the IC50 on KRAS G12D, against KRAS WT, on KRAS G12C, at KRAS G12V, on KRAS G12S and against KRAS G12A was 100 to 10000 nM in each case.

On to `CN(C)CC1(COc2nc(N3CCCOCC3)c3cnc(-c4cc(O)cc5ccccc45)c(F)c3n2)CC1` [Example 96, 4-[2-[[1-[(dimethylamino)methyl]cyclopropyl]methoxy]-8-fluoro-4-(1,4-oxazepan-4-yl)pyrido[4,3-d]pyrimidin-7-yl]naphthalen-2-ol], for which the IC50 at KRAS G12D, against KRAS WT, on KRAS G12C and at KRAS G12V was 10 to 100 nM in each case.

As to `COCC1(CNc2nc(OCC34CCCN3CCC4)nc3c(F)c(-c4cc(O)cc5ccccc45)ncc23)COC1` [Example 45, 4-[8-fluoro-2-(1,2,3,5,6,7-hexahydropyrrolizin-8-ylmethoxy)-4-[[3-(methoxymethyl)oxetan-3-yl]methylamino]pyrido [4,3-d]pyrimidin-7-yl]naphthalen-2-ol], the IC50 at KRAS G12D, at KRAS WT, against KRAS G12C, at KRAS G12V and against KRAS G12S was 100 to 10000 nM throughout.

`CN1CCCN(c2nc(OCC34CCCN3CCC4)nc3c(F)c(-c4cc(O)cc5ccccc45)ncc23)CC1=O` [Example 75, 4-[8-fluoro-2-(1,2,3,5,6,7-hexahydropyrrolizin-8-ylmethoxy)-7-(3-hydroxy-1-naphthyl)pyrido[4,3-d]pyrimidin-4-yl]-1-methyl-1,4-diazepan-2-one]: the IC50 on KRAS G12D, at KRAS WT, at KRAS G12C and against KRAS G12V was 100 to 10000 nM each time.

For the compound `CN1CCN(c2nc(OCC34CCCN3CCC4)nc3c(F)c(-c4cc(O)cc5ccccc45)ncc23)CCC1=O` [Example 78, 1-[8-fluoro-2-(1,2,3,5,6,7-hexahydropyrrolizin-8-ylmethoxy)-7-(3-hydroxy-1-naphthyl)pyrido[4,3-d]pyrimidin-4-yl]-4-methyl-1,4-diazepan-5-one], the IC50 on KRAS G12D, against KRAS WT, against KRAS G12C and on KRAS G12V was 100 to 10000 nM in each case.

With `CC1CN(c2nc(OCC34CCCN3CCC4)nc3c(F)c(-c4cc(O)cc5ccccc45)ncc23)CCO1` (stereo not drawn) [Example 6, 4-[8-fluoro-2-(1,2,3,5,6,7-hexahydropyrrolizin-8-ylmethoxy)-4-(2-methylmorpholin-4-yl)pyrido[4,3-d]pyrimidin-7-yl]naphthalen-2-ol], the IC50 on KRAS G12D, against KRAS WT, at KRAS G12C and against KRAS G12V was 100 to 10000 nM in each case.

For the compound `O=C1CCN(c2nc(OCC34CCCN3CCC4)nc3c(F)c(-c4cc(O)cc5ccccc45)ncc23)CCO1` [Example 72, 4-[8-fluoro-2-(1,2,3,5,6,7-hexahydropyrrolizin-8-ylmethoxy)-7-(3-hydroxy-1-naphthyl)pyrido[4,3-d]pyrimidin-4-yl]-1,4-oxazepan-7-one], the IC50 on KRAS G12D, at KRAS WT, at KRAS G12C and on KRAS G12V was 100 to 10000 nM each time.
